Data: ChEMBL document CHEMBL1909046, “DrugMatrix in vitro pharmacology data”

Columns and labels:
[1] = target: 5-hydroxytryptamine receptor 4 (Cavia porcellus, UniProt O70528); assay type: cell membranes, Dunkin-Hartley, Striatum, Membrane; note: in other assays of this panel Not Active means under 50% inhibition at 10 µM
[2] = target: Carbonic anhydrase 2 (Homo sapiens, UniProt P00918); assay: DRUGMATRIX: Carbonic Anhydrase II enzyme inhibition (substrate: 4-Nitrophenyl acetate (4-NPA)); assay type: tissue-based, Erythrocyte; conditions: erythrocyte; Not Active = under 50% inhibition at 10 µM
[3] = DRUGMATRIX: Glutamate, NMDA, Phencyclidine radioligand binding (ligand: [3H] TCP); assay type: cell membranes, Rattus norvegicus, Wistar, Cerebral cortex, Membrane; conditions: Not Active = under 50% inhibition at 10 µM
[4] = target: Glycine receptor (Rattus norvegicus, UniProt P22771+P24524+P07727+P20781); assay type: cell membranes, Wistar, Spinal cord, Membrane; note: in other assays of this panel Not Active means under 50% inhibition at 10 µM
[5] = target: T1, Muscarinic acetylcholine receptor M5 (Homo sapiens, UniProt P08912); assay type: cell membranes, Membrane; conditions: cho-k1; note: in other assays of this panel Not Active means under 50% inhibition at 10 µM
T1 sequence (P08912 whole entry): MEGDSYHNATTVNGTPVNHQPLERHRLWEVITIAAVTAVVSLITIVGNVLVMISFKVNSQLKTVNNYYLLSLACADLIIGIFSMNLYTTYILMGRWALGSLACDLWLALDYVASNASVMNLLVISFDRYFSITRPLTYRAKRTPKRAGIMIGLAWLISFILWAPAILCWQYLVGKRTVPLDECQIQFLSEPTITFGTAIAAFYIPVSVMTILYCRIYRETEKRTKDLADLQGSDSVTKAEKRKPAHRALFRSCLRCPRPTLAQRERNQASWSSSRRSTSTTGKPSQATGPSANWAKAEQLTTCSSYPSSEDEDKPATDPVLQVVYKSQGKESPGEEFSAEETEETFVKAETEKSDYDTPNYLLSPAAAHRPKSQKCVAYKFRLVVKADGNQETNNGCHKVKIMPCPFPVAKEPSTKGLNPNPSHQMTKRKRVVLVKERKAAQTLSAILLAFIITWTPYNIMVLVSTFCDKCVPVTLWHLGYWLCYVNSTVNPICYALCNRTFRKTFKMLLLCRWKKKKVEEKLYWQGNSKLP

[6] = DRUGMATRIX: Phosphodiesterase PDE4 enzyme inhibition (substrate: [3H]cAMP + cAMP); conditions: u-937, Not Active = under 50% inhibition at 10 µM
[7] = target: Cytochrome P450 2E1 (Homo sapiens, UniProt P05181); conditions: bti-tn-5b1-4; note: in other assays of this panel Not Active means under 50% inhibition at 10 µM
Chain of Cytochrome P450 2E1 (P05181 whole entry): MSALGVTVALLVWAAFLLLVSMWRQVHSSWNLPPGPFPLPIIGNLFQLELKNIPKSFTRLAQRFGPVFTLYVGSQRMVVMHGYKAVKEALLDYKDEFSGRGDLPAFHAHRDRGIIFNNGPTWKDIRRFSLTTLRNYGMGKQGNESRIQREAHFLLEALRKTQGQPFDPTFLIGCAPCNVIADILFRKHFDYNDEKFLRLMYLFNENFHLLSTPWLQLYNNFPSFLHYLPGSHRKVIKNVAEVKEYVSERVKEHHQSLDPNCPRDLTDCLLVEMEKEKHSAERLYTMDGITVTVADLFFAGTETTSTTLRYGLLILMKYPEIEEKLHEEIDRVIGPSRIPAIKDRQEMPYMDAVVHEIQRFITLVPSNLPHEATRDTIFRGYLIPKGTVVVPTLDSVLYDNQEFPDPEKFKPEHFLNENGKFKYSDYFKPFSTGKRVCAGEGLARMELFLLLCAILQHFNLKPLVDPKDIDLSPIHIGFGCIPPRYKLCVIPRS

[8] = target: Estrogen receptor beta (Homo sapiens, UniProt Q92731); conditions: sf9; note: in other assays of this panel Not Active means under 50% inhibition at 10 µM
Chain of Estrogen receptor beta (Q92731 whole entry): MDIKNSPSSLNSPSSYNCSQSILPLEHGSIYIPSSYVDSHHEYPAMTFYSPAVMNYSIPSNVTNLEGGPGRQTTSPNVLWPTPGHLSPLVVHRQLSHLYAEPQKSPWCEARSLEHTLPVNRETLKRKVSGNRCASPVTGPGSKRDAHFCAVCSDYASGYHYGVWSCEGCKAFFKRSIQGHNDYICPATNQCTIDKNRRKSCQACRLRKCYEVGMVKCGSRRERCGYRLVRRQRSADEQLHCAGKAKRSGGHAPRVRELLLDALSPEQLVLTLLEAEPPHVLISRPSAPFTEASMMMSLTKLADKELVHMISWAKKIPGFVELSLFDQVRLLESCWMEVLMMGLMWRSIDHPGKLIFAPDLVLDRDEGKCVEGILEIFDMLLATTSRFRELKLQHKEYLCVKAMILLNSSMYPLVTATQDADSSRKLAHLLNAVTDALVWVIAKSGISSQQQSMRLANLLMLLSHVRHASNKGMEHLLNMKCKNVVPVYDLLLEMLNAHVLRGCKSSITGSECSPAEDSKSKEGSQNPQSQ

Chain of 5-hydroxytryptamine receptor 4 (O70528 whole entry): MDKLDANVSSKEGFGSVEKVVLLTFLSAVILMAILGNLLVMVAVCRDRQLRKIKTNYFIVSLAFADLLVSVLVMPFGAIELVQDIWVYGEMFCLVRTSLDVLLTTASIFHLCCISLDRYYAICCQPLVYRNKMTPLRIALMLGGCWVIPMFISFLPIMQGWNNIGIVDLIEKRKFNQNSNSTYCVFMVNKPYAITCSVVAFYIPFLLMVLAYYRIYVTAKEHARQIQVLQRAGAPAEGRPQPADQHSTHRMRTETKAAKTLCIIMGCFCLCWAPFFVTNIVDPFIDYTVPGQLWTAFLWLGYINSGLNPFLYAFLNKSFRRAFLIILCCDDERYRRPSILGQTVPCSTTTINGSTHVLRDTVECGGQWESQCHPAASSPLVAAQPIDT

SMILES | IC50 [1] | IC50 [2] | IC50 [3] | Ki [3] | IC50 [4] | IC50 [5] | IC50 [6] | Ki [6] | IC50 [7] | Ki [7] | IC50 [8] | IC50 ([6]; read-out: IC50)
O=C(O)Cc1ccc(-c2ccccc2)cc1 [FELBINAC] | Not Active | Not Active | Not Active | Not Active | Not Active | Not Active | Not Active | Not Active | Not Active | Not Active | – | –
NC[C@H]1O[C@H](O[C@H]2[C@H](O)[C@@H](O[C@H]3O[C@H](CO)[C@@H](O)[C@H](N)[C@H]3O)[C@H](N)C[C@@H]2N)[C@H](O)[C@@H](O)[C@@H]1O [KANAMYCIN] | Not Active | Not Active | Not Active | Not Active | Not Active | Not Active | Not Active | Not Active | Not Active | Not Active | – | –
N=C(N)N/N=C/c1c(Cl)cccc1Cl [GUANABENZ] | Not Active | Not Active | Not Active | Not Active | Not Active | Not Active | Not Active | Not Active | Not Active | Not Active | – | –
OCCO [ETHYLENE GLYCOL] | Not Active | Not Active | Not Active | Not Active | Not Active | Not Active | Not Active | Not Active | Not Active | Not Active | – | –
CCN[C@@H](C)Cc1cccc(C(F)(F)F)c1 [DEXFENFLURAMINE] | Not Active | Not Active | Not Active | Not Active | Not Active | Not Active | Not Active | Not Active | Not Active | Not Active | – | –
C=C(CC)C(=O)c1ccc(OCC(=O)O)c(Cl)c1Cl [ETHACRYNIC ACID] | Not Active | Not Active | Not Active | Not Active | Not Active | Not Active | Not Active | Not Active | Not Active | Not Active | – | –
CC[C@H]1OC(=O)[C@H](C)[C@@H](O[C@H]2C[C@@](C)(OC)[C@@H](O)[C@H](C)O2)[C@H](C)[C@@H](O[C@@H]2O[C@H](C)C[C@H](N(C)C)[C@H]2O)[C@](C)(OC)C[C@@H](C)C(=O)[C@H](C)[C@@H](O)[C@]1(C)O [CLARITHROMYCIN] | Not Active | Not Active | Not Active | Not Active | Not Active | Not Active | Not Active | Not Active | Not Active | Not Active | – | –
CC(=O)O[C@]1(C(C)=O)CC[C@H]2[C@@H]3C=C(C)C4=CC(=O)CC[C@]4(C)[C@H]3CC[C@@]21C [MEGESTROL ACETATE] | Not Active | Not Active | Not Active | Not Active | Not Active | Not Active | Not Active | Not Active | Not Active | Not Active | – | –
CC(C)C[C@H]1C(=O)N2CCC[C@H]2[C@]2(O)O[C@](NC(=O)[C@@H]3C=C4c5cccc6[nH]c(Br)c(c56)C[C@H]4N(C)C3)(C(C)C)C(=O)N12 [BROMOCRIPTINE] | Not Active | Not Active | Not Active | Not Active | Not Active | Not Active | Not Active | Not Active | Not Active | Not Active | – | –
Cc1cnc(C(=O)NCCc2ccc(S(=O)(=O)NC(=O)NC3CCCCC3)cc2)cn1 [GLIPIZIDE] | Not Active | Not Active | Not Active | Not Active | Not Active | Not Active | Not Active | Not Active | – | – | Not Active | –
COc1ccccc1OCC(O)COC(N)=O (stereo not drawn) [METHOCARBAMOL] | Not Active | Not Active | Not Active | Not Active | Not Active | Not Active | Not Active | Not Active | Not Active | Not Active | – | –
CS(=O)(=O)OCCCCOS(C)(=O)=O [BUSULFAN] | Not Active | Not Active | Not Active | Not Active | Not Active | Not Active | Not Active | Not Active | Not Active | Not Active | – | –
Nc1nc(Cl)nc2c1ncn2[C@H]1C[C@H](O)[C@@H](CO)O1 [CLADRIBINE] | Not Active | Not Active | Not Active | Not Active | Not Active | Not Active | – | – | Not Active | Not Active | – | 3.62 µM
